Results on eight compounds are retold here after US6730693B2, “Double salts of fumaric acid with a carnitine and an amino acid and food supplements, dietary supplements and drugs containing same” (Sigma-Tau Industrie Farmaceutiche Riunite S.p.A., priority 2000, dated 2004).

Where a name gives a salt, the structure may show the parent alone.

The nature of series [1]: Weight increase and appearance after exposure to relative humidity (hygroscopicity test). The format is physicochemical. The conditions noted are these: for 24 hours; for Weight increase %: exposure to a relative humidity of 60 ±5% at 25%; for Appearance: exposure to a relative humidity of 60 ±5%.
Series [2] in a line: Hygroscopicity of the isolated solid as observed on preparation. Conditions: isolated solid after preparation. The format is physicochemical. The method, then:
The mixture was then filtered under vacuum and the solid thus obtained was dried in a thermostatic oven at 30° C. overnight.
The mixture was then filtered under vacuum and the solid thus obtained dried in a thermostatic oven at 30° C. overnight.
8 g (0.05 moles) of L-carnitine inner salt, 5.8 g (0.05 moles) of fumaric acid and 6.6 g of L-ornithine were dissolved in 7.5 mL of water at 60° C. and the resulting thick, clear mass was slowly poured into a solution of acetone (800 mL) under vigorous mechanical stirring.

Regarding `CN(CC(=O)O)C(=N)N` [Anhydrous creatine], in series [1], the Weight increase % was 3% and the Appearance entry is recorded as “flowable”. As to `CC(C)CC(=O)O[C@H](CC(=O)[O-])C[N+](C)(C)C` [Isovaleryl L-carnitine inner salt], in series [1], the Weight increase % amounted to 20% and the Appearance entry is recorded as “deliquescent”. In the case of `C[N+](C)(C)C[C@H](O)CC(=O)[O-].O=C(O)/C=C/C(=O)O` [L-carnitine fumarate], the “Hygroscopicity of the solid obtained” value in series [2] was “highly hygroscopic”. `C[N+](C)(C)C[C@H](O)CC(=O)[O-]` [L-carnitine inner salt]: in series [1], the Weight increase % is recorded as 19% and the Appearance result is given as “deliquescent”. Regarding “Isovaleryl L-Carnitine and Creatine Fumarate [Ex. 2 (BS/232)]”, in series [1], the Weight increase % was 0.19% and the Appearance result is “no variation”. Further, in series [2], the “Hygroscopicity of the solid obtained” value is given as “non-hygroscopic”. For “L-Carnitine and Creatine Fumarate [Ex. 1 (BS/231)]” the same measures were 0.18%, “no variation” and “non-hygroscopic”. Turning to L-carnitine and lysine fumarate, the “Hygroscopicity of the solid obtained” value in series [2] was “non-hygroscopic”.

As to “isovaleryl L-carnitine and lysine fumarate”, the “Hygroscopicity of the solid obtained” value in series [2] is “non-hygroscopic”.
